This experiment has as its system SV129 mice. The experiment can be described thus: Neurogenesis (proliferation, survival, maturation) in the SV129 mouse model. It counts as in vivo. As to conditions: compared to VEH. An excerpt:
We next assessed the effects of GL-II-73 on neurogenesis using the SV129 mouse model Kim et al. 2017. Neural Plasticity, doi.org.10.1155/2017/5863258. Specifically, we assessed the effects of treatment on neuronal cell proliferation, survival, and maturation. It is now recognized that neurogenesis occurs not only during development, but also in the adult brain. […] Specifically, adult neurogenesis is known to occur in three regions in the mammalian brain: (i) the subgranular zone (SGZ) of the dentate gyrus in the hippocampus, which is a region that is involved in regulating learning and memory; (ii) the subventricular zone (SVZ), which is situated throughout the lateral walls of the brain's lateral ventricles; and (ii) the amygdala. New neurons born in the SGZ migrate into the granule cell layer of the dentate gyrus and eventually become granule cells. These newborn neurons integrate into the existing circuitry and receive functional input. Adult neurogenesis in the hippocampus is therefore defined as the progression from neural stem cell to mature dentate granule neuron. All stages of adult neurogenesis are regulated by physiological activity, including the proliferation, differentiation, fate determination of adult neural stem cells (NSCs) and progenitors, and the survival, maturation, and integration of newborn neurons.
The stages of neurogenesis can be broken down into (i) proliferation, (ii) survival of the newly formed cells, and (iii) their maturation. Each can be evaluated using specific markers for proliferation, survival, and maturation. […] BrdU can be used to show survival of the newly proliferating cells since it is incorporated into the newly synthesized DNA of replicating cells and is then maintained in the newly formed cells. Thus, quantitative immunohistochemistry against BrdU is used as a proxy of survival. Finally, doublecortin can be used as a proxy of maturation. Previous studies have shown that all steps of neurogenesis were down regulated in the SV129 mice, and further that chronic treatment with fluoxetine, a first line monoaminergic antidepressant, increased the neurogenesis in this mouse model. We therefore used this model system to assess the effects of chronic treatment with GL-II-73 on neurogenesis.
Fluoxetine treatment was used as a positive control in each experiment.

On to `CNCCC(Oc1ccc(C(F)(F)F)cc1)c1ccccc1` (stereo not shown) [FLX, fluoxetine], for which the “proliferation: number of K167-positive cells” value (chronic treatment (4 weeks), FIG. 13A, FLX p<0.001, GL-II-73 p<0.05) is listed as “increased the number of K167-positive cells”. Also, the “survival: BrdU-positive cells” value (chronic treatment (4 weeks), FIG. 13B) is listed as “only FLX increased BrdU-positive cells”. The “maturation: number of DCX+cells” value (chronic treatment, FIG. 14A, ps<0.05) is “increased with FLX compared to VEH”. Besides, the “maturation index (DCX+cells possessing tertiary dendrites over the total DCX+cells)” value (chronic treatment, FIG. 14B, ps<0.01) was “an increase with both FLX and GL-II-73”.

These data come from US12636291B2, “Compositions and methods relating to use of agonists of ALPHA5-containing GABAA receptors” (Centre for Addiction and Mental Health, priority 2019, dated 2026).
